Marks after values point to notes of the source that are not given here. Each block holds one molecule with its values, some of them ahead of it.
Assays:
[1] = cited from earlier work
[2] = rats; cited from earlier work
GR = assay: MMTV LTR-CAT reporter in stably transfected SMCs; type: cell-based
Text: Because ER. interacts with NFkB transcription factor complexes in a similar manner to that for GR, agents which modulate ER/NFkB interaction should modulate the inflammatory response without activating GR. To test this hypothesis, SMCs in DMEM+10% FCS were transfected with a vector comprising the MMTV LTR promoter coupled to the chloramphenicol acetyl transferase (CAT) gene and the neomycin resistance gene (neo). A stably transfected line was selected using geneticin. When these cells were treated with dexamethasone, expression of the CAT gene was elevated 3.7±0.7 fold. […] Thus, ER/NFkB modulators would be expected to circumvent the undesirable side-effect profile associated with direct transcriptional activation by GR.

TGF-beta [3] = assay: TGF-beta production by human VSMCs in culture; type: cell-based; settings: cultured VSMCs
Protocol: The amount of TGF-beta present in medium conditioned on VSMCs in the presence and absence of aspirin was measured by ELISA.
The ED50 for TGF-beta production of the complex (Cu Aspirinate) was determined in cultured rat and human VSMCs.

[4] = target: T1, recombinant extracellular domain of the type II TGF-beta receptor (R2X) (Homo sapiens, UniProt P37173); assay: Binding of recombinant TGF-beta to R2X (ELISA); settings: lipoprotein equivalent to 3 mM total cholesterol added; maximal value
T1 construct: the recombinant extracellular domain of the type II TGF-beta receptor (R2X)
T1 sequence (P37173 23-166 limits assumed): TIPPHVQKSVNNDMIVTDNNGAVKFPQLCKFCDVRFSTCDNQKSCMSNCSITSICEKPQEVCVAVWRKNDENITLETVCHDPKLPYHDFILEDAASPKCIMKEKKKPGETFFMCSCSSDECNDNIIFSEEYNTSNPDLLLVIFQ
Protocol: To determine whether the TGF-beta associated with lipoprotein particles was able to bind to the type II TGF-beta signaling receptor and exert biological activity in vitro, the binding of recombinant TGF-beta to R2X was measured in the absence and presence of increasing concentrations of lipoprotein purified from the plasma of an individual with <1 ng/ml TGF-beta in plasma (individual I, Table 1). If the lipoprotein-associated fraction of TGF-beta is unavailable for binding, lipoproteins prepared from an individual with a very low plasma concentration of TGF-beta would be expected to reduce the binding of recombinant active TGF-beta to its receptors. The half maximal (ka) binding of recombinant TGF-beta to the recombinant extracellular domain of the type II TGF-beta receptor was previously determined to be 17±3 ng/ml (R2X; Grainger et al., Nature, 270, 460 (1994); Grainger et al., Clin. Chim. Acta, 235, 11 (1995)).
To measure the binding of TGF-beta to its receptor, the recombinant extracellular domain of the type II TGF-beta receptor (R2X), was coated onto ELISA plates (1 μg/well, Maxisorp plates, Gibco BRL). Wells were washed 3 times quickly in TBS and blocked with TBS containing 3% bovine serum albumin (BSA, fatty-acid free; Sigma) for 30 minutes. […] The amount of bound TGF-beta was detected with antibody BDA5 (R&D Systems) as previously described by Grainger et al., Clin. Chim. […]

[5] = test system: mink lung epithelial (MvLu) cells; assay: Inhibition of MvLu cell proliferation; type: cell-based
Text: It has previously been shown that TGF-beta inhibits the proliferation of mink lung epithelial (MvLu) cells in culture. […] J. Physiol., 265, C571 (1993). […] Addition of lipoprotein purified from the plasma of individual I caused a dose-dependent increase in the ID50 of TGF-beta.

[6] = target: T1, recombinant extracellular domain of the type II TGF-beta receptor (R2X); settings: no lipoprotein; previously determined; cited from earlier work
TGF-beta [7] = assay: TGF-beta in vessel wall of apoE knockout mice (quantitative immunofluorescence); type: in vivo, mouse; settings: 87 days treatment
Protocol: No. 08/478,936, filed Jun. 7, 1995, which is incorporated by reference herein. […] Sigma) and fixed in ice-cold acetone for 90 seconds, air-dried and stored at -20° C. until assayed. […] R&D Systems), see Mosedale et al., Histochem. Cytochem., 44, 1043 (1996), the disclosure of which is incorporated by reference herein. Active TGF-beta wag measured by quantitative immunofluorescence microscopy using the recombinant extracellular domain of the type II TGF-beta receptor […]) labeled with fluorescein.

[8] = test system: smooth muscle α-actin (SM-α-actin); assay: SM-alpha-actin in vessel wall (quantitative immunofluorescence); type: in vivo, mouse; settings: 87 days treatment
Protocol: (§1) SM-α-actin and osteopontin were measured by quantitative immunofluorescence microscopy using specific primary antibodies A-6125 (Sigma) and MBP111Bio (NIH Developmental Studies Hybridoma Bank), respectively.

osteopontin = assay: Osteopontin in vessel wall (quantitative immunofluorescence); type: in vivo, mouse; settings: 87 days treatment
Protocol: as §1

[9] = Serum lipid and lipoprotein profile of apoE knockout mice; type: in vivo, mouse
Protocol: The effect of each treatment on the lipid profile of each group of mice was determined by measuring the cholesterol and triglyceride. Blood from a terminal bleed was collected in a polypropylene tube, allowed to clot at room temperature for 2 hours and then spun (1,000×g; 5 minutes). The serum supernatant was aliquoted and stored at −20° C. until assayed. Total cholesterol and total triglycerides were determined for each mouse using the cholesterol oxidase and glycerol kinase UV end-point enzymatic methods respectively (Sigma Diagnostics).

[10] = Simvastatin for 16 weeks in patients with high cholesterol; type: in vivo, human; settings: six time points
Protocol: Twenty six patients with high cholesterol were administered simnvastatin for 16 weeks. Blood was collected at six times points during the 16 weeks and analyzed for TGF-beta levels.

apoE knockout mice = assay: Lipid lesion development in aortic sinus of apoE knockout mice (Oil Red O)
Protocol: To determine the efficacy of combination therapy, and to provide evidence for synergism between aspirin and fish oil, 8-week-old female apoE knockout mice were fed aspirin or fish oil, or both, to assess the cardioprotective effects of modulating different components of the TGF-beta pathway.
Group A mice (n=10) were sacrificed at day 0. Group B mice (n=10) were fed normal chow. […] Group D mice (n=10) were fed chow containing 33 mg/kg/day fish oil (200 μg Pulse cod liver oil/g food, Seven Seas Ltd., which contains 0.9 g eicosapentaenoic acid (EPA), and 0.3 g docosahexaenoic acid (DHA)) and 3 mg/kg/day aspirin dissolved in water. Group E mice (n=10) were fed chow containing 33 mg/kg/day fish oil. Group F mice (n=10) were fed chow containing Zocor (simvastatin; Zocor tablets, Merck, Sharpe & Dohme) at 400 μg/kg/day (2 μg/g food).
Groups B-F were fed these regimens for 87 days. All mice were weighed daily for the first week and weekly thereafter. Food and water consumption over a 24 hour period were measured daily for the first 7 days and weekly thereafter.
After 87 days, mice in groups B-F were fasted overnight and then sacrificed. Serum, heart, lungs and aorta samples were collected at the time of sacrifice. The heart, lungs and aorta were removed from each mouse and rinsed in PBS, dabbed dry on tissue and embedded in Cryo-M-bed embedding medium (Bright Instruments, Huntington, U.K.) before snap freezing in liquid nitrogen. Frozen sections (4 μm thickness) of the aortic sinus region were prepared from the heart/lung/aorta blocks according to the sectioning strategy of Paigen et al. (Arteriosclerosis, 10, 316 (1990)). Sections on 5% gelatin-coated slides were stained for neutral lipid by the Oil Red O technique and counter-stained with fast green (Grainger et al., Nature Med., 1, 1067 (1995)).
The development of lipid-filled vascular lesions was determined by the quantitation of oil red O staining for neutral lipid deposited in the aortic sinus region. The area of lipid accumulation was measured using a calibrated microscope eye-piece, such that lipid droplets<50 μm^2 were ignored and contiguous regions of lipid staining>500 μm in area were classified as lesions.

TGF-beta [11] = assay: TMX 40 mg/day for 10 days in TVD patients: plasma TGF-beta; type: in vivo, human
Protocol: Active plus acid-activatable latent (a+1) TGF-beta levels were assayed in platelet-poor plasma using seven different assay methods. There has been debate in the literature regarding the most appropriate way to measure (a+1) TGF-beta, so to avoid difficulties specific to any particular measurement method all the available methods which have been described in the literature were used. The seven methods are:
(A) A sandwich ELISA using BDA19 and BDA5 (R&D Systems) antibodies with no activation step required.
(B) The Quantikine TGF-beta1 ELISA kit (R&D Systems) using acid/urea as the activation buffer in accordance with the manufacturer's instructions
(C) The Quantikine TGF-beta1 ELISA kit (R&D Systems) using acid alone as the activation buffer
(D) The BioTrak TGF-beta1 ELISA kit (Amersham International) using acid/urea as the activation buffer
(E) The BioTrak TGF-beta1 ELISA kit (Amersham International) using acid alone as the activation buffer in accordance with the manufacturers instructions
(F) The TGF-beta1 ELISA kit (Genzyme Diagnostics) using acid/urea as the activation buffer in accordance with the manufacturer's instructions
(G) The TGF-beta1 ELISA kit Promega Corporation) using acid alone as the activation buffer in accordance with the manufacturer's instructions
Replicate aliquots of plasma taken from the same individuals at the same time were assayed by all seven methods.
The partitioning of TGF-beta between the lipoproteins and plasma proteins was analyzed by separating the lipoprotein fraction (d<[…]) from the plasma proteins by density ultracentrifugation as described hereinabove. TGF-beta levels were assayed in both fractions using the Quantikine ELISA kit, following release and activation of TGF-beta with acetic acid and urea in accordance with the manufacturer's instructions. None of the three TGF-beta ELISAs used here detected TGF-beta in the lipoprotein fraction without prior extraction/activation with acetic acid/urea.

NFkB = NFkB translocation (p65 immunostaining) and kB-luciferase reporter activity in human SMCs; type: cell-based
Text: In cells which had been transfected with a reporter construct which has three consensus kB DNA elements fused to the luciferase gene, the amount of light which was produced when the cell lysate was exposed to luciferin and ATP was proportional to NFkB activity.

[12] = TMX 40 mg/day for 10 days in TVD patients: plasma lipids, Lp(a), PAI-1
Text: Patients with triple vessel disease (TVD) were defined as individuals having at least 50% stenosis of all three coronary arteries by angiography, which was confirmed by two independent observers. All had stable angina, with no myocardial infarction in the previous three months. Patients with unstable angina, poor left ventricular function, ventricular hypertrophy or diabetes were excluded.
Blood samples were taken and plasma prepared before and during the treatment period, and these samples were analyzed for TGF-beta, Lp(a), PAI-1 and lipoprotein profiles. Patients were asked to fast overnight prior to samples of blood being drawn between 9 am. and 10 a.m. the following morning. Blood samples were drawn by venepuncture of the antecubital vein with no tourniquet applied using a 21 gauge butterfly needle. Half the blood was allowed to clot for 2 hours at room temperature in polypropylene tubes. The clot was spun down (1,500×g; 15 minutes) and aliquots of the serum was stored at −100° C. The remaining blood was dispensed into Diatube H tubes (Diagnostica Stago) and cooled on ice for 15 minutes. Blood cells and platelets were spun down (6,000×g; 30 minutes) and the middle third of the supernatant was taken, carefully avoiding disturbing the pellet. This platelet-poor plasma was stored in aliquots at −100° C. until assayed.
Total plasma triglyceride, total plasma cholesterol, HDL-cholesterol, LDL-cholesterol and VLDL-cholesterol were routinely assayed in all patients.

[13] = single measurement on pooled blood of the group
[14] = TNF-alpha (20 ng/ml) and tamoxifen (5 μM) simultaneously

Molecule: CC/C(=C(\c1ccc(I)cc1)c1ccc(OCCN2CCCC2)cc1)c1ccccc1 [idoxifene, (E)-1-[4-[2-(N-pyrrolidino)ethoxy]phenyl]-1-(4-iodophenyl)-2-phenyl-1-butene]
covalent (hepatic) DNA adducts ([1]; rat, in vivo): absence of DNA adducts | residual estrogenic activity compared with TMX [2]: reduced residual estrogenic activity

Molecule: C[C@@H]1C[C@H]2[C@@H]3CCC4=CC(=O)C=C[C@]4(C)[C@@]3(F)[C@@H](O)C[C@]2(C)[C@@]1(O)C(=O)CO [dexamethasone]
elevation of expression of the CAT gene (GR): 3.7±0.7 fold

Molecule: CC(=O)Oc1ccccc1C(=O)[O-].CC(=O)Oc1ccccc1C(=O)[O-].[Cu+2] [Cu aspirinate, copper II (acetyl salicylate)2]
potency at stimulating TGF-beta relative to aspirin (TGF-beta [3]): almost two orders of magnitude more potent

apparent ka for TGF-beta binding to R2X [4]: 42 ± 6 ng/mL
Molecule: recombinant TGF-beta: recombinant active TGF-beta1 (R&D Systems)
MvLu cell ID50 ([5]; 3 mM total cholesterol lipoprotein added, maximal): 0.52 ± 0.08 ng/mL | MvLu cell ID50 ([5]; no lipoprotein, n=6): 0.12 ± 0.04 ng/mL | half maximal (ka) binding of recombinant TGF-beta to R2X [6]: 17 ± 3 ng/mL

Molecule: CCC(C)(C)C(=O)O[C@H]1C[C@@H](C)C=C2C=C[C@H](C)[C@H](CC[C@@H]3C[C@@H](O)CC(=O)O3)[C@H]21 [Zocor, simvastatin]
Active + Latent TGF-beta in Vessel Wall (TGF-beta [7]): 44 ± 5 | Active TGF-beta in Vessel Wall (TGF-beta [7]): 20 ± 3 | SMα Actin [8]: 114 ± 19 | Osteopontin (osteopontin): 73 ± 8 | Total cholesterol ([9]; serum, 87 days treatment): 224 ± 29 mg/dL | Total triglyceride ([9]; serum, 87 days treatment): 266 ± 14 mg/dL | HDL-cholesterol [9, 13]: 35 mg/dL | LDL-cholesterol [9, 13]: 54 mg/dL | VLDL-cholesterol [9, 13]: 158 mg/dL | change in LDL-cholesterol vs control mice ([9]; three months): −41% | change in VLDL-cholesterol vs control mice ([9]; three months): −14% | change in total plasma cholesterol vs control mice ([9]; three months): −27% | reduction in total plasma triglyceride concentration ([9]; three months): −12% | effect on TGF-beta levels [10]: no effect | change in lesion development / lesion formation vs untreated mice (apoE knockout mice; 3 month treatment): −7% | Number of Lesions (apoE knockout mice; 87 days treatment): 8.1 ± 0.4 | Lesion Area (μm^2 staining) (apoE knockout mice; 87 days treatment, per mouse, n=10): 25,777 ± 1368 μm^2

Molecule: CC/C(=C(\c1ccccc1)c1ccc(OCCN(C)C)cc1)c1ccccc1 [TMX, trans-2-[4-(1,2-diphenyl-1-butenyl)phenoxy]-N,N-dimethylethylamine]
Plasma (a + 1) TGF-β, Method (A) (TGF-beta [11]; Day 10, BDA19/BDA5 sandwich ELISA): 7.7 ± 1.5 ng/mL | Plasma (a + 1) TGF-β, Method (E) (TGF-beta [11]; Day 10, BioTrak, acid alone): 2.3 ± 0.1 ng/mL | Plasma (a + 1) TGF-β, Method (D) (TGF-beta [11]; Day 10, BioTrak, acid/urea): 2.4 ± 0.1 ng/mL | Plasma (a + 1) TGF-β, Method (F) (TGF-beta [11]; Day 10, Genzyme, acid/urea): 5.2 ± 0.3 ng/mL | Plasma (a + 1) TGF-β, Method (G) (TGF-beta [11]; Day 10, Promega, acid alone): 0.2 ± 0.1 ng/mL | Plasma (a + 1) TGF-β, Method (C) (TGF-beta [11]; Day 10, Quantikine, acid alone): 0.62 ± 0.07 ng/mL | Plasma (a + 1) TGF-β, Method (B) (TGF-beta [11]; Day 10, Quantikine, acid/urea): 1.2 ± 0.2 ng/mL | change in plasma (a + 1) TGF-β, Method (A) (TGF-beta [11]; Day 10 vs Day 0): (+24%) | change in plasma (a + 1) TGF-β, Method (B) (TGF-beta [11]; Day 10 vs Day 0): (+71%) | change in plasma (a + 1) TGF-β, Method (C) (TGF-beta [11]; Day 10 vs Day 0): (+148%) | change in plasma (a + 1) TGF-β, Method (D) (TGF-beta [11]; Day 10 vs Day 0): (+20%) | change in plasma (a + 1) TGF-β, Method (E) (TGF-beta [11]; Day 10 vs Day 0): (+29%) | change in plasma (a + 1) TGF-β, Method (F) (TGF-beta [11]; Day 10 vs Day 0): (+59%) | change in plasma (a + 1) TGF-β, Method (G) (TGF-beta [11]; Day 10 vs Day 0): (+100%) | proportion of plasma TGF-beta that is lipoprotein-associated (TGF-beta [11]; after 10 days of TMX therapy, Quantikine ELISA): 25±3% | median increase in (a+1) TGF-beta (TGF-beta [11]; by day 10): 59% | lowering of VLDL ([9]; apo(E)−/− mouse): seven fold | inhibition at 5 µM (NFkB; Homo sapiens, read-out: inhibition of TNF-alpha-induced NFkB activity): 86 ± 12% | NFkB translocated to the nucleus (NFkB; [14]): less than 10% | stimulation of NFkB activity (NFkB; [14]): less than 3 fold | change in NFkB activity (NFkB; tamoxifen alone): no detectable change | long-term carcinogenicity ([1]; rats): liver carcinogenicity | HDL-cholesterol ([12]; Day 10): 0.77 ± 0.04 mM | LDL-cholesterol ([12]; Day 10): 4.16 ± 0.25 mM | Lipoprotein(a) ([12]; Day 10): 42.4 ± 9.5 mg/dL | Plasma PAI-I antigen ([12]; Day 10): 35.9 ± 5.4 ng/mL | Total plasma triglycerides ([12]; Day 10): 2.28 ± 0.35 mM | VLDL-cholesterol ([12]; Day 10): 0.84 ± 0.11 mM | Total plasma cholesterol ([12]; Day 10, mean ± standard error, 15 patients): 5.95 ± 0.29 mM | concentration of HDL-cholesterol, change ([12]; after 10 days): unchanged | concentration of LDL-cholesterol, change ([12]; after 10 days): unchanged | decrease in total plasma cholesterol below baseline ([12]; after 10 days): 6% | reduction of cholesterol in the VLDL fraction below baseline ([12]; after 10 days): 18% | lowering of total plasma triglyceride concentration ([12]; after 10 days, not statistically significant (p=0.22)): 18% | decrease in plasma concentration of Lp(a) ([12]; day 3 vs baseline): 27% | reduction in Lp(a) concentration ([12]; day 10 vs baseline): 31% | % Lesion Suppression (apoE knockout mice; mouse aorta): 99* %

From US6410587B1, “Compounds and therapies for the prevention of vascular and non-vascular pathologies” (NeoRx Corporation, priority 1997, dated 2002)
